Reference: patent US11306101B2 (Celgene Corporation, priority 2019, dated 2022)

Biological target: T1, CK1α (Homo sapiens, UniProt P48729+Q96SW2)
T1 construct: expressed in transfected cells
Experiment: CK1α ePL degradation assay in MDS-L cells
Type: cell-based
Conditions: MDS-L cells expressing ePL-tagged CK1α; for DC50: concentration giving 50% CK1α degradation vs DMSO control; for Y: lowest measured CK1α level normalized to DMSO control
In short: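 Degradation efficiency is reported as Y value, the minimum CK1α level (percent of DMSO control) across doses. Readout used InCELL Hunter luminescent detection after MDS-L cell exposure at 37° C for stated times, doses 10 μM down to 0.0005 μM in 3-fold steps.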

T1 sequence (P48729 whole entry): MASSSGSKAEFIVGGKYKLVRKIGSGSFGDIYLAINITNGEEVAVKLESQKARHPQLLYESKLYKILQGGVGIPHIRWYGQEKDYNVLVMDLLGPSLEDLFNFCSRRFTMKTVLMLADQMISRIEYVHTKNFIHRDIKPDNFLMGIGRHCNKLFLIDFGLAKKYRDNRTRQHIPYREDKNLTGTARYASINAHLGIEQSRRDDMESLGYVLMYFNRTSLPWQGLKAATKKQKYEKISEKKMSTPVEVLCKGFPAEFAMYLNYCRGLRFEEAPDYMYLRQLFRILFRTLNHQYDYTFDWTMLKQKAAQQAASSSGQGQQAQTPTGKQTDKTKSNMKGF
T1 sequence (Q96SW2 whole entry): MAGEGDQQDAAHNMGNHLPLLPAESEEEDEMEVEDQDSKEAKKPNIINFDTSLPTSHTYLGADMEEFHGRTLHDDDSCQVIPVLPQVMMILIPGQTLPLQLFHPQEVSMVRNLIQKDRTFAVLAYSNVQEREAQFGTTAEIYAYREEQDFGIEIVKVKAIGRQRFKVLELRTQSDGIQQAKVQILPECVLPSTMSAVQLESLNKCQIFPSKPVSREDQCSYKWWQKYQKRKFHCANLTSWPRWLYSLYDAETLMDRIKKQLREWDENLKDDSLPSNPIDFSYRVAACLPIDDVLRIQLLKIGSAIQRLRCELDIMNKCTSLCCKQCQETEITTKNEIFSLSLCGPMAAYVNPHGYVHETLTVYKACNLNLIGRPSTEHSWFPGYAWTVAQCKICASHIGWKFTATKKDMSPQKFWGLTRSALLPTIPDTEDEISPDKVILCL
T1 sequence (Q16531 whole entry partner): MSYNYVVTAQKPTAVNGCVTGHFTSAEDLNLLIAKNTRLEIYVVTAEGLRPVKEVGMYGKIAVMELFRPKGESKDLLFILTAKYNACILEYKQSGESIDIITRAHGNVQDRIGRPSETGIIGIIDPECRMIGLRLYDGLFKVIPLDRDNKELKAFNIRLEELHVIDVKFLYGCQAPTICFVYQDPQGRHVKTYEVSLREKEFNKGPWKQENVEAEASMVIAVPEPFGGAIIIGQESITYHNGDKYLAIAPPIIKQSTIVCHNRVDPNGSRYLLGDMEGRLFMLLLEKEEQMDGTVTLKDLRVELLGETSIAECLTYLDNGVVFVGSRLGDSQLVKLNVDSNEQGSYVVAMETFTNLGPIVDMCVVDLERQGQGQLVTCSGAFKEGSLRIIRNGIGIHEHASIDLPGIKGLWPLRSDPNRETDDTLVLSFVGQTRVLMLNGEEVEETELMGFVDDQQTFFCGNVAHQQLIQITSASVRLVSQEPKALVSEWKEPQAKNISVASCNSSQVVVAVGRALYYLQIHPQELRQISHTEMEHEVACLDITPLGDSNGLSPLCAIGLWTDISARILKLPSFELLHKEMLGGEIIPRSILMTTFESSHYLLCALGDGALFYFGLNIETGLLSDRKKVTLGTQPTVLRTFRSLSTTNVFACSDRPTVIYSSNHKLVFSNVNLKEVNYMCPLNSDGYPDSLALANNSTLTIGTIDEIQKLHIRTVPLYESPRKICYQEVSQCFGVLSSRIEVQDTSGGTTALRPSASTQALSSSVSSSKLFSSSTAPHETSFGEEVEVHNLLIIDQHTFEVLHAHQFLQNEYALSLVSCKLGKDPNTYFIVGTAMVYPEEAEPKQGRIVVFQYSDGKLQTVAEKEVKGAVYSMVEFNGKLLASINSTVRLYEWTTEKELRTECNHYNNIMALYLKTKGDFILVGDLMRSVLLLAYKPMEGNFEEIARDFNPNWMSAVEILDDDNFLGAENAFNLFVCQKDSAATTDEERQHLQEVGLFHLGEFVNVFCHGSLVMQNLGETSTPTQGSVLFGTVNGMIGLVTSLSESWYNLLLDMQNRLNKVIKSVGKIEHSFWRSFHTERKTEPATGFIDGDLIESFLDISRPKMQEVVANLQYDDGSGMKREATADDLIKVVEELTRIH

O=C1CCC(N2Cc3cc(C(=O)N[C@H](c4cccc(N5CCOCC5)c4)C(F)(F)F)ccc3C2=O)C(=O)N1 (stereo partly drawn) [Example 201, 2-(2,6-dioxopiperidin-3-yl)-1-oxo-N-((R)-2,2,2-trifluoro-1-(3-morpholinophenyl)ethyl)isoindoline-5-carboxamide]
DC50: < 100 nM | Y: * (a Y value (shown as *) of 0<Y≤20%)

CN(C)Cc1cnc([C@@H](NC(=O)c2ccc3c(c2)CN(C2CCC(=O)NC2=O)C3=O)C(F)(F)F)c(Cl)c1 (stereo partly drawn) [Example 202, N-((R)-1-(3-chloro-5-((dimethylamino)methyl)pyridin-2-yl)-2,2,2-trifluoroethyl)-2-(2,6-dioxopiperidin-3-yl)-1-oxoisoindoline-5-carboxamide]
DC50: < 100 nM | Y: * (a Y value (shown as *) of 0<Y≤20%)

O=C1CCC(N2Cc3cc(C(=O)N[C@H](c4c(F)cc(F)cc4Cl)C(F)(F)F)ccc3C2=O)C(=O)N1 (stereo partly drawn) [Example 203, N-((R)-1-(2-chloro-4,6-difluorophenyl)-2,2,2-trifluoroethyl)-2-(2,6-dioxopiperidin-3-yl)-1-oxoisoindoline-5-carboxamide]
DC50: < 100 nM | Y: * (a Y value (shown as *) of 0<Y≤20%)

O=C1CCC(N2Cc3cc(C(=O)N[C@H](c4ccc(N5CCOCC5)cc4)C(F)(F)F)ccc3C2=O)C(=O)N1 (stereo partly drawn) [Example 204, 2-(2,6-dioxopiperidin-3-yl)-1-oxo-N-((R)-2,2,2-trifluoro-1-(4-morpholinophenyl)ethyl)isoindoline-5-carboxamide]
DC50: < 100 nM | Y: * (a Y value (shown as *) of 0<Y≤20%)

O=C1CCC(N2Cc3cc(C(=O)N[C@H](c4ccccc4N4CCOCC4)C(F)(F)F)ccc3C2=O)C(=O)N1 (stereo partly drawn) [Example 205, 2-(2,6-dioxopiperidin-3-yl)-1-oxo-N-((R)-2,2,2-trifluoro-1-(2-morpholinophenyl)ethyl)isoindoline-5-carboxamide]
DC50: < 100 nM | Y: * (a Y value (shown as *) of 0<Y≤20%)

CN1CCN(c2ccccc2[C@@H](NC(=O)c2ccc3c(c2)CN(C2CCC(=O)NC2=O)C3=O)C(F)(F)F)CC1 (stereo partly drawn) [Example 206, 2-(2,6-dioxopiperidin-3-yl)-1-oxo-N-((R)-2,2,2-trifluoro-1-(2-(4-methylpiperazin-1-yl)phenyl)ethyl)isoindoline-5-carboxamide]
DC50: < 100 nM | Y: * (a Y value (shown as *) of 0<Y≤20%)

O=C1CC[C@H](N2Cc3cc(C(=O)N[C@H](c4ncc(Cl)cc4Cl)C(F)(F)F)ccc3C2=O)C(=O)N1 [Example 207, N-((R)-1-(3,5-dichloropyridin-2-yl)-2,2,2-trifluoroethyl)-2-((S)-2,6-dioxopiperidin-3-yl)-1-oxoisoindoline-5-carboxamide]
DC50: < 100 nM | Y: * (a Y value (shown as *) of 0<Y≤20%)

CN1CCN(c2ccc([C@@H](NC(=O)c3ccc4c(c3)CN(C3CCC(=O)NC3=O)C4=O)C(F)(F)F)cc2)CC1 (stereo partly drawn) [Example 208, 2-(2,6-dioxopiperidin-3-yl)-1-oxo-N-((R)-2,2,2-trifluoro-1-(4-(4-methylpiperazin-1-yl)phenyl)ethyl)isoindoline-5-carboxamide]
DC50: < 100 nM | Y: * (a Y value (shown as *) of 0<Y≤20%)

CN1CCN(c2cccc([C@@H](NC(=O)c3ccc4c(c3)CN(C3CCC(=O)NC3=O)C4=O)C(F)(F)F)c2)CC1 (stereo partly drawn) [Example 209, 2-(2,6-dioxopiperidin-3-yl)-1-oxo-N-((R)-2,2,2-trifluoro-1-(3-(4-methylpiperazin-1-yl)phenyl)ethyl)isoindoline-5-carboxamide]
DC50: 100 to 500 nM | Y: ** (a Y value (shown as**) of 20%<Y≤35%)
